{
  "source": "ChEMBL document CHEMBL1201862",
  "about": "“PubChem BioAssay data set” (2004)",
  "key": {"Cytochrome P450 2C9": {"target": "Cytochrome P450 2C9 (Homo sapiens, UniProt P11712)", "sequence (P11712 whole entry)": "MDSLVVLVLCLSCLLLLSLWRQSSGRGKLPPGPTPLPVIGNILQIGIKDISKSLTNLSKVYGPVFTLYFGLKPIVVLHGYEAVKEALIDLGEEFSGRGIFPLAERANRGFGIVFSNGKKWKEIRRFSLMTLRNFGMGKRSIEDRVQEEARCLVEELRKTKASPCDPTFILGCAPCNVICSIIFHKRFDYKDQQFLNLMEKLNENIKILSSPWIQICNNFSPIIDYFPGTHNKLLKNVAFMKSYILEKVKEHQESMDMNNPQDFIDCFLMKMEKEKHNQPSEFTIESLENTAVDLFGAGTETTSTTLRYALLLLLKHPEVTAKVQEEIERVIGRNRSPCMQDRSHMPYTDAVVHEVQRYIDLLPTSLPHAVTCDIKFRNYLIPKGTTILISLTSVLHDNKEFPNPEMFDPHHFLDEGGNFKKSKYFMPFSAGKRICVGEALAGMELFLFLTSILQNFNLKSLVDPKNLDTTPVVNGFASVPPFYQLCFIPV"}, "[1]": {"assay": "NIH3T3 cell viability loss – ATP luminescence, mouse fibroblasts, counter-screen, dose response (AID 2010);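 also: cells exposed to compound for about 90 hours before reading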", "format": "functional, cell-based"}, "[2]": {"assay": "Trypanosoma cruzi growth suppression in host cells – NIH3T3 host cells, beta-gal luminescence, confirmation (AID 2044);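 also: luminescent beta-galactosidase reporter signal from transgenic T. cruzi replicating inside host cells; inhibitors lower the luminescence signal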", "format": "functional, cell-based"}, "[3]": {"target": "Voltage-dependent T-type calcium channel subunit alpha-1H (Homo sapiens, UniProt O95180)", "sequence (O95180 whole entry)": "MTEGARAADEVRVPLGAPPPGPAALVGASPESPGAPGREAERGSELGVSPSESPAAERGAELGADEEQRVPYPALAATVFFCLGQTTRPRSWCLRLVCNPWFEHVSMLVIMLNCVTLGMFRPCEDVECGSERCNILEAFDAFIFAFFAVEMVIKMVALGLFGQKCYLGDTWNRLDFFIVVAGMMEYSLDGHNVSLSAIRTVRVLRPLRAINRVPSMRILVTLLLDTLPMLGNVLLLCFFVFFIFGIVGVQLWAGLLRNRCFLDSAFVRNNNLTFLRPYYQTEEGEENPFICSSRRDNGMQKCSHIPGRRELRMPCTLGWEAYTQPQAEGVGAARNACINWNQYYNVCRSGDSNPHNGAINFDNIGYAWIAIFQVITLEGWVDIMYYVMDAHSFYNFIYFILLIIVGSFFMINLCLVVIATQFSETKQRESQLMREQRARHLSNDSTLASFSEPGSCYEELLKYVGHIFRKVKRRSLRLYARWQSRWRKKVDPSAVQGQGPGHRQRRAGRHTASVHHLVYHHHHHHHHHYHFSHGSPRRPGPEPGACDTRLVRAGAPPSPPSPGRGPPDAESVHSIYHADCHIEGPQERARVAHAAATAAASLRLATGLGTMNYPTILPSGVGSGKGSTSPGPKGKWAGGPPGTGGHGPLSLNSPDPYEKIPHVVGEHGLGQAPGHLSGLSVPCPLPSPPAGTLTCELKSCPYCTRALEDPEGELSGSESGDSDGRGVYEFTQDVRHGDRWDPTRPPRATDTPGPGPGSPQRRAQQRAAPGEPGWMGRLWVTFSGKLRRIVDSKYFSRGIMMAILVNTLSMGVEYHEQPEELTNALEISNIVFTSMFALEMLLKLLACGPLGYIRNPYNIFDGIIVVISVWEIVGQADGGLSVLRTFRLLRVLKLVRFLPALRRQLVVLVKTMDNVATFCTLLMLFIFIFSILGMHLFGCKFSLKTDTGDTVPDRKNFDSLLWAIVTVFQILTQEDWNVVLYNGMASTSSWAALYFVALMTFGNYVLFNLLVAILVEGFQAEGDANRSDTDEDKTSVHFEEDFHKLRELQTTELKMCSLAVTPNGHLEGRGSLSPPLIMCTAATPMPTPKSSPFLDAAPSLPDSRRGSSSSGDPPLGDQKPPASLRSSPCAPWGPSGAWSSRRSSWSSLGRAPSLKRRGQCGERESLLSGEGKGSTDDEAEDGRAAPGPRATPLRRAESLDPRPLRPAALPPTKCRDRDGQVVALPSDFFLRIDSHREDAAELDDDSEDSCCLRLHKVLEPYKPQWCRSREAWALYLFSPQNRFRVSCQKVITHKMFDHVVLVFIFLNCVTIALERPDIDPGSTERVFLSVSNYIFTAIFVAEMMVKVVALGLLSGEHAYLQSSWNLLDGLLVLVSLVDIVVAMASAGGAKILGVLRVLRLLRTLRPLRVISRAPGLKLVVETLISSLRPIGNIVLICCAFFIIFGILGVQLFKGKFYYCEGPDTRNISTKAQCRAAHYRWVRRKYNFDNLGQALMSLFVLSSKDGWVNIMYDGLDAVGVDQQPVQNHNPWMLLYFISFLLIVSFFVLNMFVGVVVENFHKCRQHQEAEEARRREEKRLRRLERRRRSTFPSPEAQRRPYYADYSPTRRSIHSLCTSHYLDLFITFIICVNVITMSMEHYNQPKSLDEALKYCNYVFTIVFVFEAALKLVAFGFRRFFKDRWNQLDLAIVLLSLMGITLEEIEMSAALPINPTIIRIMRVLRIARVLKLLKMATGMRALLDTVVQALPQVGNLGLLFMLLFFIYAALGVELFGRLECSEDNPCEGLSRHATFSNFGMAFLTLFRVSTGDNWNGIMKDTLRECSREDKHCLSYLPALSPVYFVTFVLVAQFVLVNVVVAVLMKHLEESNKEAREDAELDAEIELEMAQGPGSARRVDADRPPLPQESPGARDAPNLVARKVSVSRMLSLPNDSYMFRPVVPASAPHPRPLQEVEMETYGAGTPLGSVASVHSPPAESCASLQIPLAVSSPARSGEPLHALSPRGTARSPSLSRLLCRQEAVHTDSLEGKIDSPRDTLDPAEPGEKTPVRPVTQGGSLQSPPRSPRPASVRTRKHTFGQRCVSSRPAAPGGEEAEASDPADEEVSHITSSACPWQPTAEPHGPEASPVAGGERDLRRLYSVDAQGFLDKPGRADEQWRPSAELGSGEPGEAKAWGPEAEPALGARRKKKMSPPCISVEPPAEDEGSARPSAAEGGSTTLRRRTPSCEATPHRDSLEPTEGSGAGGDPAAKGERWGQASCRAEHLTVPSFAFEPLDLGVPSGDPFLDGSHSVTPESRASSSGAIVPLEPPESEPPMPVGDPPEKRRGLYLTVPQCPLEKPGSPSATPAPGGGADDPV", "format": "functional"}, "[4]": {"target": "T1, High affinity choline transporter 1 (Homo sapiens, UniProt Q9GZV3)", "T1 sequence (Q9GZV3 whole entry)": "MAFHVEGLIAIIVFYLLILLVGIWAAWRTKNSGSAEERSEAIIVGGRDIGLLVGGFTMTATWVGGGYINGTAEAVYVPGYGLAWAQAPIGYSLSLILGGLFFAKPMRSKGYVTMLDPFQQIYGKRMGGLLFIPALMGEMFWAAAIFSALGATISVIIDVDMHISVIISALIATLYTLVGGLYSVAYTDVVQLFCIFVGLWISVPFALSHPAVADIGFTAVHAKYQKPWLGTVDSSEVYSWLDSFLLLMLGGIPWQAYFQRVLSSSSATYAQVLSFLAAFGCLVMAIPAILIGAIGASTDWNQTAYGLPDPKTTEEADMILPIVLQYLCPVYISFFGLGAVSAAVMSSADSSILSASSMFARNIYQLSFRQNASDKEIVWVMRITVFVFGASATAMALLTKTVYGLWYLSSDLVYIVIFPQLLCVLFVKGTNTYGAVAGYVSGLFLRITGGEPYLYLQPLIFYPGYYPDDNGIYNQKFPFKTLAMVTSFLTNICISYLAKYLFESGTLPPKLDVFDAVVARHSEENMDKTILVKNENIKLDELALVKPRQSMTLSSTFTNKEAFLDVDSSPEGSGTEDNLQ", "assay": "human choline transporter blockers, potency – cell-based, 10-point CRC, membrane potential dye, dose response (AID 588401);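 also: membrane potential dye fluorescence of choline-evoked depolarization via CHT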", "format": "functional"}, "[5]": {"target": "T1, High affinity choline transporter 1", "assay": "human choline transporter blockers, potency – cell-based, 5-point CRC, membrane potential dye, dose response (AID 504840)", "format": "functional"}, "[6]": {"target": "T2, Calpain-2 catalytic subunit (Sus scrofa, UniProt P43367)", "T2 sequence (P43367 whole entry)": "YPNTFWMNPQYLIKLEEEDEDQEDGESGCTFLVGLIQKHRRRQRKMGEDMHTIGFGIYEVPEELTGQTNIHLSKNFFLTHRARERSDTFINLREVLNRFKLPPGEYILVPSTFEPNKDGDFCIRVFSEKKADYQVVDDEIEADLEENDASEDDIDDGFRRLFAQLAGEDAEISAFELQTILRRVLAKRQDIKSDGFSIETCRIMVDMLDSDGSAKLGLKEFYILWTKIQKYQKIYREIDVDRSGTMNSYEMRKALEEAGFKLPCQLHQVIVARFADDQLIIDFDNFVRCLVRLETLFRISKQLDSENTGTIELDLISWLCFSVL", "assay": "m-calpain protease blockers, concentration series – biochemical, fluorogenic peptide substrate, dose response (AID 1420)", "format": "functional"}, "Cytochrome P450 1A2": {"target": "T3, Cytochrome P450 1A2 (Homo sapiens, UniProt P05177)", "T3 sequence (P05177 whole entry)": "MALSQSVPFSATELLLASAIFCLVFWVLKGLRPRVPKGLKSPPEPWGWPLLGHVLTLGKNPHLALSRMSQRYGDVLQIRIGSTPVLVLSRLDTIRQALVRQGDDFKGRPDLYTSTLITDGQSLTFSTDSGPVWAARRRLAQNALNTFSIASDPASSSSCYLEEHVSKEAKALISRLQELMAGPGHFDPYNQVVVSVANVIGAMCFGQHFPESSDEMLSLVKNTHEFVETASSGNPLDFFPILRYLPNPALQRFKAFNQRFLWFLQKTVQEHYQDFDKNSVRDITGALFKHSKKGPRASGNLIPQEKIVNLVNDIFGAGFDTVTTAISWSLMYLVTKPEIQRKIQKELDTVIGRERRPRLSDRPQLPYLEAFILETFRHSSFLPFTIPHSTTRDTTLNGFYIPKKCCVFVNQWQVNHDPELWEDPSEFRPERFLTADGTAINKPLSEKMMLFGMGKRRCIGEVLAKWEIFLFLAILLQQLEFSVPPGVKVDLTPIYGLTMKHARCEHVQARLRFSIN"}, "Cytochrome P450 3A4": {"target": "Cytochrome P450 3A4 (Homo sapiens, UniProt P08684)", "sequence (P08684 whole entry)": "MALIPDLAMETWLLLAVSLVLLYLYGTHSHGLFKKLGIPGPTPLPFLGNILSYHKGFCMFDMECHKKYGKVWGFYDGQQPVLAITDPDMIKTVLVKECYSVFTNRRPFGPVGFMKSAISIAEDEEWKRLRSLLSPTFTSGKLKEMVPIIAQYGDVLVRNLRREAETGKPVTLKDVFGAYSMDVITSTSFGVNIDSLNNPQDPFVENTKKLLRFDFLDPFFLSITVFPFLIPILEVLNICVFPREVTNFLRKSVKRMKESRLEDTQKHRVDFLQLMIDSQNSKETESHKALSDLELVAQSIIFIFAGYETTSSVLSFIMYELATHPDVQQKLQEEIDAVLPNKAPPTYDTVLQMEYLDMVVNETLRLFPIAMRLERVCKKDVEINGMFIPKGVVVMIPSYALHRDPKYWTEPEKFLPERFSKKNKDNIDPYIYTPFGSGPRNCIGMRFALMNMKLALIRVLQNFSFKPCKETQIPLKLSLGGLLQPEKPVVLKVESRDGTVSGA"}, "[7]": {"assay": "Luminescence Cell-Based Dose Response HTS to Identify Activators of Luciferase Translation or Activity in H4 […] Cells. [Related pubchem assays: 1829 (Project Summary), 1814 (Primary HTS)]", "format": "functional"}, "H4": {"system": "H4", "assay": "Luminescence Cell-Based Dose Response HTS to Identify Activators of 5'UTR Stem-Loop Driven Prion Protein mRNA Translation in H4 Neuroglioblastoma Cells. [Related pubchem assays: 1829 (Project Summary), 1814 (Primary HTS)]", "format": "functional", "settings": "Homo sapiens"}, "Cytochrome P450 2D6": {"target": "Cytochrome P450 2D6 (Homo sapiens, UniProt P10635)", "sequence (P10635 whole entry)": "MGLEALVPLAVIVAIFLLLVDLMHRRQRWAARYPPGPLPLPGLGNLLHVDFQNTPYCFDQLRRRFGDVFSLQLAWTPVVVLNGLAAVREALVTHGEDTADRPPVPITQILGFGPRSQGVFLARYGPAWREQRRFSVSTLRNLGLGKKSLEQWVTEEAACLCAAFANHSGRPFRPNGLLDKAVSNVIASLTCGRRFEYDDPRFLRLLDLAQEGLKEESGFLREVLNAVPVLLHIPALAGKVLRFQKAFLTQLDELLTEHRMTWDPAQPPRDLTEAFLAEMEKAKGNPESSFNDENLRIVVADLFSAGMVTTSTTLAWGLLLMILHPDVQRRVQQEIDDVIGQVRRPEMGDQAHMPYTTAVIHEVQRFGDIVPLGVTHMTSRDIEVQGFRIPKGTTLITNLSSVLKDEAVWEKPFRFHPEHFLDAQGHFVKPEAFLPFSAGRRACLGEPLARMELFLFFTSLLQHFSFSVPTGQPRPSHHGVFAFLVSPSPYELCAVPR"}, "[8]": {"assay": "viability of uninfected HEp-2 cells – cell-based, HTS, cytotoxicity control for RSV inhibitor project, dose response (AID 2410)", "format": "functional", "settings": "human respiratory syncytial virus"}, "[9]": {"assay": "microbe, parasite or virus in culture", "format": "functional", "settings": "Mycobacterium tuberculosis"}, "[10]": {"assay": "alpha-synuclein stem-loop luciferase translation blockers – H4 neuroglioma cells, luminescence, confirmation (AID 1988)", "format": "functional, cell-based"}, "[11]": {"assay": "luciferase reporter signal suppression in cells – H4 neuroglioma cells, luminescence, dose response (AID 1990)", "format": "functional, cell-based"}, "[12]": {"assay": "Luminescence Cell-Based Dose Response HTS to Identify Inhibitors of 5'UTR Stem-Loop Driven Prion Protein mRNA Translation in H4 Neuroglioblastoma Cells. [Related pubchem assays: 1827 (Project Summary), 1813 (Primary HTS)]", "format": "functional"}},
  "note": "Calls of active or inactive are those of the source.",
  "data": [
    {"smiles": "CN(C)c1nc(-c2ccccc2C(F)(F)F)nc2ccccc12", "values": [
      {"measurement": "AC50", "setting": "Cytochrome P450 2C9", "value": "inconclusive"}
    ]},
    {"smiles": "CC(C)(C)n1nnnc1C(c1cccs1)N(Cc1ccc(Cl)cc1)CC1CCCO1", "note": "(stereo not given)", "values": [
      {"measurement": "EC50", "setting": "[1]", "value": "> 60 µM (not active)"},
      {"measurement": "EC50", "setting": "[2]", "value": "2.41 µM (active)"},
      {"measurement": "EC50", "setting": "[3]", "value": "8.19 µM (active)"}
    ]},
    {"smiles": "CCc1nnc(NS(=O)(=O)c2ccc(NC(=O)c3ccc(Br)cc3)cc2)s1", "values": [
      {"measurement": "IC50", "setting": "[4]", "value": "10 µM (active)"},
      {"measurement": "IC50", "setting": "[5]", "value": "4.45 µM (active)"}
    ]},
    {"smiles": "O=C(Nc1ccccc1C(=O)NCCCn1ccnc1)c1ccccc1", "values": [
      {"measurement": "IC50", "setting": "[4]", "value": "1.5 µM (active)"},
      {"measurement": "IC50", "setting": "[5]", "value": "5.59 µM (active)"}
    ]},
    {"smiles": "Cc1cccc(OCCCSc2nc3ccc(C)cc3[nH]2)c1", "values": [
      {"measurement": "IC50", "setting": "[6]", "value": "24.9 µM (not active)"},
      {"measurement": "EC50", "setting": "[3]", "value": "3.92 µM (active)"}
    ]},
    {"smiles": "COc1cc(Br)cc2cc(C(=O)NCC3CCCO3)c(=O)oc12", "note": "(stereo not given)", "values": [
      {"measurement": "AC50", "setting": "Cytochrome P450 1A2", "value": "3.55 µM (inconclusive)"},
      {"measurement": "AC50", "setting": "Cytochrome P450 2C9", "value": "inconclusive"}
    ]},
    {"smiles": "Nc1ccc2c3c(cccc13)C(=O)NC2=O", "values": [
      {"measurement": "AC50", "setting": "Cytochrome P450 3A4", "value": "3.16 µM (inconclusive)"},
      {"measurement": "AC50", "setting": "Cytochrome P450 2C9", "value": "inconclusive"}
    ]},
    {"smiles": "CN1C(=C2C(=O)OC(C)(C)OC2=O)Sc2ccccc21", "values": [
      {"measurement": "EC50", "setting": "[7]", "value": "122 nM (active)"},
      {"measurement": "AC50", "setting": "Cytochrome P450 2C9", "value": "inconclusive"},
      {"measurement": "EC50", "setting": "H4", "value": "> 120 µM (not active)"}
    ]},
    {"smiles": "Cc1ccccc1NS(=O)(=O)c1cc(C(=O)Nc2ccccc2-c2ccccc2)ccc1Cl", "values": [
      {"measurement": "EC50", "setting": "[3]", "value": "3.95 µM (active)"}
    ]},
    {"smiles": "Cc1ccc(SCCC(=O)NCCSCc2ccccc2C)cc1", "values": [
      {"measurement": "EC50", "setting": "[3]", "value": "2.87 µM (active)"}
    ]},
    {"smiles": "COC(=O)Cn1c(CN2CCN(c3ccc(F)cc3)CC2)nc2c1c(=O)n(C)c(=O)n2C", "values": [
      {"measurement": "IC50", "setting": "[4]", "value": "1.15 µM (active)"},
      {"measurement": "IC50", "setting": "[5]", "value": "3.59 µM (active)"}
    ]},
    {"smiles": "CCN(CC)S(=O)(=O)c1ccc2oc(C(=O)NCc3ccc(F)cc3)c(C)c2c1", "values": [
      {"measurement": "EC50", "setting": "[3]", "value": "3.18 µM (active)"}
    ]},
    {"smiles": "Cc1cccc(-n2nnc(C(=O)NC3CCCc4ccccc43)c2N)c1", "note": "(stereo not given)", "values": [
      {"measurement": "IC50", "setting": "[6]", "value": "7.05 µM (not active)"},
      {"measurement": "AC50", "setting": "Cytochrome P450 3A4", "value": "1.12 µM (inconclusive)"},
      {"measurement": "AC50", "setting": "Cytochrome P450 1A2", "value": "15.8 µM (inconclusive)"},
      {"measurement": "AC50", "setting": "Cytochrome P450 2D6", "value": "7.94 µM (inconclusive)"},
      {"measurement": "AC50", "setting": "Cytochrome P450 2C9", "value": "inconclusive"}
    ]},
    {"smiles": "Cc1sc[n+](CC(=O)c2ccc(Br)cc2)c1C", "values": [
      {"measurement": "IC50", "setting": "[4]", "value": "3.76 µM (active)"},
      {"measurement": "IC50", "setting": "[5]", "value": "8.46 µM (active)"}
    ]},
    {"smiles": "Cc1nccn1CC1CCc2c(c3ccccc3n2C)C1=O", "note": "(stereo not given)", "values": [
      {"measurement": "IC50", "setting": "[4]", "value": "1.35 µM (active)"},
      {"measurement": "IC50", "setting": "[5]", "value": "1.67 µM (active)"}
    ]},
    {"smiles": "Cc1ccc(N2CCN(C(=O)CCc3nc4ccccc4[nH]3)CC2)c(C)c1", "values": [
      {"measurement": "CC50", "setting": "[8]", "value": "13.6 µM (active)"},
      {"measurement": "EC50", "setting": "[3]", "value": "3.27 µM (active)"}
    ]},
    {"smiles": "Cn1c(=O)c(C#N)c(-c2ccc(F)cc2)c2cc(C(=O)c3cc(Cl)cc(Cl)c3O)cnc21", "values": [
      {"measurement": "IC50", "setting": "[4]", "value": "7.08 µM (active)"},
      {"measurement": "IC50", "setting": "[5]", "value": "6.95 µM (active)"}
    ]},
    {"smiles": "COc1cccc(NC(=O)C2CCN(Cc3cnn(-c4ccccc4)c3-n3cccc3)CC2)c1", "values": [
      {"measurement": "CC50", "setting": "[9]", "value": "14.6 µM (active)"},
      {"measurement": "EC50", "setting": "[3]", "value": "2.29 µM (active)"}
    ]},
    {"smiles": "CCNC(=O)c1ccc(-n2nc(C(F)(F)F)c3c2CCCC3)cc1", "values": [
      {"measurement": "EC50", "setting": "[10]", "value": "> 120 µM (not active)"},
      {"measurement": "AC50", "setting": "Cytochrome P450 1A2", "value": "25.1 µM (inconclusive)"},
      {"measurement": "EC50", "setting": "[11]", "value": "18.1 µM (active)"},
      {"measurement": "AC50", "setting": "Cytochrome P450 2D6", "value": "8.91 µM (inconclusive)"},
      {"measurement": "EC50", "setting": "[12]", "value": "41.9 µM (active)"},
      {"measurement": "AC50", "setting": "Cytochrome P450 2C9", "value": "inconclusive"}
    ]},
    {"smiles": "Cc1nn2c(NCCOCCO)c3c(nc2c1-c1ccccc1)CCCC3", "values": [
      {"measurement": "IC50", "setting": "[4]", "value": "11.2 µM (active)"},
      {"measurement": "IC50", "setting": "[5]", "value": "3.43 µM (active)"}
    ]}
  ]
}
